The target in the first test is T1, F508del (Homo sapiens, UniProt P13569, DEL508-508).
T1 construct: expressed in transfected cells
T1 sequence (P13569 with tags, fused parts or gaps DEL508-508): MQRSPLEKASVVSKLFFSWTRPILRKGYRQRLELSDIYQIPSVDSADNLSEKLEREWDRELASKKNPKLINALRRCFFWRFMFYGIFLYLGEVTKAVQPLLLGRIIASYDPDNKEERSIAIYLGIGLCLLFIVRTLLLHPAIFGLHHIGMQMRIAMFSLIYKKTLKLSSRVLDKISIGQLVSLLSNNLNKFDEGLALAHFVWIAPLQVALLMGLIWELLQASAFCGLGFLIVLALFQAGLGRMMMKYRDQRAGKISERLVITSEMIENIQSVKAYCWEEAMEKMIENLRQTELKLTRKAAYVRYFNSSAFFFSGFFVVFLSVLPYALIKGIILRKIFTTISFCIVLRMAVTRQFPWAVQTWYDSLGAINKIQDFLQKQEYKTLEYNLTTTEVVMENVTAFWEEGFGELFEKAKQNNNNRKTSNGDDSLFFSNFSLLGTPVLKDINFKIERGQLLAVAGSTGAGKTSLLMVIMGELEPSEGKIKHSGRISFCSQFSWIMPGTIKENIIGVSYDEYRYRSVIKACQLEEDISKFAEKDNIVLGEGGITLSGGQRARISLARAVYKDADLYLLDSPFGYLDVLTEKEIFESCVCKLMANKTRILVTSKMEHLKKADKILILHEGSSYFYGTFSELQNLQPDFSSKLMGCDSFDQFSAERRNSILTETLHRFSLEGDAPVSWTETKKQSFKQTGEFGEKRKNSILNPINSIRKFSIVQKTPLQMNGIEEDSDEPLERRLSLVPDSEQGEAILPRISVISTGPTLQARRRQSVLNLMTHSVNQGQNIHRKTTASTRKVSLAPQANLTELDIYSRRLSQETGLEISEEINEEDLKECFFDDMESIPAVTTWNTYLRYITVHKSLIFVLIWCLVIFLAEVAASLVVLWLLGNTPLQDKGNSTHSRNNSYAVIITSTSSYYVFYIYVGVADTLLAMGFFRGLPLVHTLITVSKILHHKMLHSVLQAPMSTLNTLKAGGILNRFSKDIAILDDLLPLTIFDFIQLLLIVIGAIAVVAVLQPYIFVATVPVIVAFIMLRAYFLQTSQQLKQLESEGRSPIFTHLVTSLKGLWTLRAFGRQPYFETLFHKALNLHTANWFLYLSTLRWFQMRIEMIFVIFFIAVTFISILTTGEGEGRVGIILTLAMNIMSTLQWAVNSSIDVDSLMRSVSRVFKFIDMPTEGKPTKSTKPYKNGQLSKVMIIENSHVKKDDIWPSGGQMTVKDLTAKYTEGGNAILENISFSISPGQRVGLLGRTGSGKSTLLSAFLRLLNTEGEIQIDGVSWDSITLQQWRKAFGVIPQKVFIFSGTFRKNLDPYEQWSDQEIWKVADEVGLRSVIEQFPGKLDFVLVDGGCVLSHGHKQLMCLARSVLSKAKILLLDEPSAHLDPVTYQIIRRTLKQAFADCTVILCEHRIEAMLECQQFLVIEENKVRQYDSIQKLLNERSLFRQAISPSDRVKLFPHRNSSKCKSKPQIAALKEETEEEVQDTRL
Put plainly: Protocol 2: FRET membrane potential optical assay (VIPR), identification of correction compounds. The note with it: F508del CFTR modulator activity; compounds of Table 1; read-out: EC30. The test is classed as cell-based. In a few lines:
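Corrector readout: membrane-potential FRET (CC2-DMPE donor, DiSBAC2(3) acceptor) on VIPR II after Cl⁻-free gluconate bath with 10 μM forskolin and 20 μM genistein. Before this, F508del-expressing NIH3T3 cells were exposed to test compound for 16 h at 37 °C without serum; 27 °C incubation served as temperature-correction control.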
With `CC(C)COc1cccc(-c2cnc(N3CC(C)CC3(C)C)c(C(=O)NS(=O)(=O)c3cccc(N)n3)c2)c1` (stereo not shown) [Compound 2089, N-[(6-amino-2-pyridyl)sulfonyl]-5-(3-isobutoxyphenyl)-2-(2,2,4-trimethylpyrrolidin-1-yl)pyridine-3-carboxamide], the concentration for an effect of 30% (EC30) is less than 3000 nM.

On to `CC1CN(c2ncccc2C(=O)NS(=O)(=O)c2cccc(Oc3ccc(Cl)cc3)n2)C(C)(C)C1` (stereo not shown) [Compound 2145, N—[[6-(4-chlorophenoxy)-2-pyridyl]sulfonyl]-2-(2,2,4-trimethylpyrrolidin-1-yl)pyridine-3-carboxamide], for which the EC30 is less than 3000 nM.

With `CCOc1ccc(F)c(-c2ccc(C(=O)NS(=O)(=O)c3ccc[nH]c3=O)c(N3C[C@@H](C)CC3(C)C)n2)c1` [Compound 2138, 6-(5-ethoxy-2-fluoro-phenyl)-N-[(2-oxo-1H-pyridin-3-yl)sulfonyl]-2-[(4S)-2,2,4-trimethylpyrrolidin-1-yl]pyridine-3-carboxamide], the EC30 is less than 3000 nM.

With `CC1CN(c2ncccc2C(=O)NS(=O)(=O)c2cccc(Oc3ccc4c(c3)CCC4=O)n2)C(C)(C)C1` (stereo not shown) [Compound 2733], the concentration for an effect of 30% (EC30) lay within 3000 to 10000 nM.

As for `CC1CN(c2ncccc2C(=O)NS(=O)(=O)c2cccc(N[C@H](C)C(C)(C)C)n2)C(C)(C)C1` (stereo partly shown) [Compound 2745], the EC30 was less than 3000 nM.

As for `C/C=C/COc1cccc(S(=O)(=O)NC(=O)c2ccc(C(C)(C)C)nc2N2CC(C)CC2(C)C)n1` (stereo not shown) [Compound 2715], the EC30 was less than 3000 nM.

For `CC1CN(c2ncccc2C(=O)NS(=O)(=O)c2cccc(Oc3ccc4[nH]ccc4c3)n2)C(C)(C)C1` (stereo not shown) [Compound 2003, N—[[6-(1H-indol-5-yloxy)-2-pyridyl]sulfonyl]-2-(2,2,4-trimethylpyrrolidin-1-yl)pyridine-3-carboxamide], the EC30 is less than 3000 nM.

Consider `CC1CN(c2ncccc2C(=O)NS(=O)(=O)c2cccc(N3CCCCC3C)n2)C(C)(C)C1` (stereo not shown) [Compound 2747], for which the EC30 was less than 3000 nM.

As to `COc1ncc(-c2ccc(C(=O)NS(=O)(=O)c3ccc[nH]c3=O)c(N3C[C@@H](C)CC3(C)C)n2)cc1F` [Compound 2444, 6-(5-fluoro-6-methoxy-3-pyridyl)-N-[(2-oxo-1H-pyridin-3-yl)sulfonyl]-2-[(4S)-2,2,4-trimethylpyrrolidin-1-yl]pyridine-3-carboxamide], the EC30 lay in the range of 3000 to 10000 nM.

Take `CC1CN(c2ncccc2C(=O)NS(=O)(=O)c2cccc(Oc3ccc4c(c3)OCO4)n2)C(C)(C)C1` (stereo not shown) [Compound 2013, N—[[6-(1,3-benzodioxol-5-yloxy)-2-pyridyl]sulfonyl]-2-(2,2,4-trimethylpyrrolidin-1-yl)pyridine-3-carboxamide]: the EC30 is less than 3000 nM.

Staying with this test, now noted: Table 3; compounds of Table 1 as modulators of CFTR activity; protocol not stated.
On to `Cc1cc(C)c(Oc2nc(-c3cc(O)cc(F)c3)ccc2C(=O)NS(=O)(=O)c2cccc(N)n2)c(C)c1` [Compound 505, N-[(6-amino-2-pyridyl)sulfonyl]-6-(3-fluoro-5-hydroxy-phenyl)-2-(2,4,6-trimethylphenoxy)pyridine-3-carboxamide], for which the 30% effect concentration (EC30) entry is “++ (“++” means between 3 uM and 10 uM)”.

Turning to `COc1ccc2c(c1)CN(Cc1c(C)cc(C)cc1C)C2(C)C(=O)NS(=O)(=O)c1cccc(N)n1` (stereo not shown) [Compound 406, N-[(6-amino-2-pyridyl)sulfonyl]-5-methoxy-1-methyl-2-[(2,4,6-trimethylphenyl)methyl]isoindoline-1-carboxamide], the EC30 entry was “+++ (“+++” means <3 uM)”.

`COc1ccc(F)cc1-c1ccc(C(=O)NS(=O)(=O)c2cccc(N)n2)c(Oc2c(C)cc(C)cc2C)n1` [Compound 700, N-[(6-amino-2-pyridyl)sulfonyl]-6-(5-fluoro-2-methoxy-phenyl)-2-(2,4,6-trimethylphenoxy)pyridine-3-carboxamide]: the EC30 entry is on record as “+++ (“+++” means <3 uM)”.

With `CC(C)COc1cc(F)cc(-c2ccc(C(=O)NS(=O)(=O)c3cccc(N)n3)c(N3CCC(C)C3C)n2)c1` (stereo not shown) [Compound 720, N-[(6-amino-2-pyridyl)sulfonyl]-2-(2,3-dimethylpyrrolidin-1-yl)-6-(3-fluoro-5-isobutoxy-phenyl)pyridine-3-carboxamide], the EC30 result was “+++ (“+++” means <3 uM)”.

As for `Cc1cc(C)c(Oc2nc(C)ccc2C(=O)NS(=O)(=O)c2cccc(N)c2)c(C)c1` [Compound 13, N-(3-aminophenyl)sulfonyl-6-methyl-2-(2,4,6-trimethylphenoxy)pyridine-3-carboxamide], the 30% effect concentration (EC30) result was “++ (“++” means between 3 uM and 10 uM)”.

With `COc1ccc(S(=O)(=O)NC(=O)c2ccc(C(C)(C)C)nc2-c2ccc(C)cc2)cn1` [Compound 512, 6-tert-butyl-N-[(6-methoxy-3-pyridyl)sulfonyl]-2-(p-tolyl)pyridine-3-carboxamide], the EC30 result was “++ (“++” means between 3 uM and 10 uM)”.

With `Cc1ccc(-c2ccc(C(=O)NS(=O)(=O)c3cc[nH]n3)c(Oc3ccc(C)cc3C)n2)cc1` [Compound 610, 2-(2,4-dimethylphenoxy)-6-(p-tolyl)-N-(1H-pyrazol-3-ylsulfonyl)pyridine-3-carboxamide], the EC30 result was “+++ (“+++” means <3 uM)”.

Consider `Cc1c(Cn2nc(C(C)(C)C)cc2C(=O)NS(=O)(=O)c2cccc3ccn(C)c23)cccc1C(F)(F)F` [Compound 276, 5-tert-butyl-N-(1-methylindol-7-yl)sulfonyl-2-[[2-methyl-3-(trifluoromethyl)phenyl]methyl]pyrazole-3-carboxamide], for which the EC30 result is recorded as “+++ (“+++” means <3 uM)”.

Consider `Cc1cc(C)c(Oc2nc(-c3cccc(OCC(C)C)c3)ccc2C(=O)NS(=O)(=O)c2ccc[nH]c2=O)c(C)c1` [Compound 125, 6-(3-isobutoxyphenyl)-N-[(2-oxo-1H-pyridin-3-yl)sulfonyl]-2-(2,4,6-trimethylphenoxy)pyridine-3-carboxamide], for which the concentration for an effect of 30% (EC30) entry is “++ (“++” means between 3 uM and 10 uM)”.

As for `COc1ncccc1S(=O)(=O)NC(=O)c1cc2ccccc2n1Cc1c(C)cc(C)cc1C` [Compound 18, N-[(2-methoxy-3-pyridyl)sulfonyl]-1-[(2,4,6-trimethylphenyl)methyl]indole-2-carboxamide], the EC30 result is listed as “+++ (“+++” means <3 uM)”.

As for `COc1ncccc1S(=O)(=O)NC(=O)c1cc(C(C)(C)C)nn1Cc1c(C)cc(C)cc1C` [Compound 759, 5-tert-butyl-N-[(2-methoxy-3-pyridyl)sulfonyl]-2-[(2,4,6-trimethylphenyl)methyl]pyrazole-3-carboxamide], the EC30 result is “+++ (“+++” means <3 uM)”.

As to `CC(C)Oc1cc(-c2ccc(C(=O)NS(=O)(=O)c3cccc(N)n3)c(N3[C@H](C)CC[C@@H]3C)n2)ccc1Cl` [Compound 788, N-[(6-amino-2-pyridyl)sulfonyl]-6-(4-chloro-3-isopropoxy-phenyl)-2-[(2S,5R)-2,5-dimethylpyrrolidin-1-yl]pyridine-3-carboxamide], the EC30 result is “+++ (“+++” means <3 uM)”.

Consider `COc1cc(F)ccc1-c1ccc(C(=O)NS(=O)(=O)c2cc[nH]n2)c(Oc2c(C)cc(C)cc2C)n1` [Compound 405, 6-(4-fluoro-2-methoxy-phenyl)-N-(1H-pyrazol-3-ylsulfonyl)-2-(2,4,6-trimethylphenoxy)pyridine-3-carboxamide], for which the 30% effect concentration (EC30) entry was “+++ (“+++” means <3 uM)”.

As for `Cc1cc(C)c(Oc2nc(-c3ccoc3)ccc2C(=O)NS(=O)(=O)c2cccc(N)n2)c(C)c1` [Compound 284, N-[(6-amino-2-pyridyl)sulfonyl]-6-(3-furyl)-2-(2,4,6-trimethylphenoxy)pyridine-3-carboxamide], the EC30 result was “+++ (“+++” means <3 uM)”.

On to `Cc1cc(C)c(CN2CCc3ccccc3C2C(=O)NS(=O)(=O)c2cccc(N)c2)c(C)c1` (stereo not shown) [Compound 309, N-(3-aminophenyl)sulfonyl-2-[(2,4,6-trimethylphenyl)methyl]-3,4-dihydro-1H-isoquinoline-1-carboxamide], for which the EC30 result is “+++ (“+++” means <3 uM)”.

Take `Cc1cc(C)c(Cn2c(C(=O)NS(=O)(=O)c3ccccc3)cc3ccc(C)cc32)c(C)c1` [Compound 12, N-(benzenesulfonyl)-6-methyl-1-[(2,4,6-trimethylphenyl)methyl]indole-2-carboxamide]: the EC30 result is “+++ (“+++” means <3 uM)”.

Take `CC1CCN(c2nc(-c3ccc(OC(C)C)nc3)ccc2C(=O)NS(=O)(=O)c2cccc(N)n2)CC1` [Compound 736, N-[(6-amino-2-pyridyl)sulfonyl]-6-(6-isopropoxy-3-pyridyl)-2-(4-methyl-1-piperidyl)pyridine-3-carboxamide]: the EC30 entry is recorded as “+++ (“+++” means <3 uM)”.

Turning to `CC(C)COc1cc(F)cc(-c2ccc(C(=O)NS(=O)(=O)c3cccc(N)n3)c(OC3CCCOC3)n2)c1` (stereo not shown) [Compound 706, N-[(6-amino-2-pyridyl)sulfonyl]-6-(3-fluoro-5-isobutoxy-phenyl)-2-tetrahydropyran-3-yloxy-pyridine-3-carboxamide], the EC30 result is “+++ (“+++” means <3 uM)”.

For the compound `CC(C)COc1cc(F)cc(-c2ccc(C(=O)NS(=O)(=O)c3cccc(N)n3)c(N3CCC[C@@H](C)C3)n2)c1` [Compound 408, N-[(6-amino-2-pyridyl)sulfonyl]-6-(3-fluoro-5-isobutoxy-phenyl)-2-[(3R)-3-methyl-1-piperidyl]pyridine-3-carboxamide], the EC30 entry was “+++ (“+++” means <3 uM)”.

For `CC(C)Oc1cc(F)cc(-c2ccc(C(=O)NS(=O)(=O)c3ccc[nH]c3=O)c(N3[C@H](C)CC[C@@H]3C)n2)c1` [Compound 487, 2-[(2S,5R)-2,5-dimethylpyrrolidin-1-yl]-6-(3-fluoro-5-isopropoxy-phenyl)-N-[(2-oxo-1H-pyridin-3-yl)sulfonyl]pyridine-3-carboxamide], the EC30 result is “++ (“++” means between 3 uM and 10 uM)”.

For `Cc1cc(C)c(Cn2c(C(=O)NS(=O)(=O)c3ccccc3)c(C)c3ccccc32)c(C)c1` [Compound 232, N-(benzenesulfonyl)-3-methyl-1-[(2,4,6-trimethylphenyl)methyl]indole-2-carboxamide], the EC30 entry was “+++ (“+++” means <3 uM)”.

By EC30 is commonly meant the point of the concentration-response curve where the effect stands at 30%.

The values above are taken from patent publication US10758534B2 (Vertex Pharmaceuticals Incorporated, priority 2014, dated 2020).
